Series [1] can be described thus: Cytotoxicity against mouse RAW264.7 cells assessed as cell survival rate at 100 uM incubated for 24 hrs by MTT assay. The following applies: read-out: Activity. The series is classed as toxicity, cell-based.
Series [2] has as its system RAW264.7. As to the kind of experiment: Anti inflammatory activity in LPS-induced mouse RAW264.7 cells assessed as inhibition of NO production preincubated with LPS for 4 hrs followed by compound addition and measured after 18 hrs by griess reagent based assay. The format is functional, cell-based. The following applies: for Activity: dose 5-80 µM.
Series [3] has as its system RAW264.7. As to the kind of experiment: Anti inflammatory activity in LPS-induced mouse RAW264.7 cells assessed as inhibition of NO production at 80 uM preincubated with LPS for 4 hrs followed by compound addition and measured after 18 hrs by griess reagent based assay. Also on record: scale not given: the % may be the effect or the level left. The format is functional.

The subject of series [4] is RAW264.7. As to the kind of experiment: Anti inflammatory activity in LPS-induced mouse RAW264.7 cells assessed as reduction in iNOS expression at 5 to 80 uM measured for 24 hrs by Western blot analysis. The following applies: dose 5-80 µM. The series is classed as functional, cell-based.
Series [5] has as its system RAW264.7. The series can be described thus: Cytotoxicity against mouse RAW264.7 cells assessed as reduction in cell viability at 1 to 40 uM incubated for 24 hrs by MTT assay. The series is classed as toxicity, cell-based. The following applies: raw264.7, 24 h, dose 1-40 µM.
A further series deals with Mus musculus. The series can be described thus: Antiinflammatory activity against xylene-induced ear edema mouse model assessed as swelling rate at 10 mg/kg, iv measured after 30 mins. The series is classed as functional. Conditions: 0.5 h.

Each structure is given as a SMILES string. Calls of active or inactive are those of the source. The rule behind the calls is not given here.

Consider `Cc1ccc(S(=O)(=O)N2C(=O)[C@H](c3ccc(Br)cc3)[C@H]3c4cccc(Br)c4C=CN32)cc1`, for which, in series [1], the viability at 24 h, 100 µM is 92.9%. Also, in the series with RAW264.7 [2], the half-maximal inhibitory concentration (IC50) was 20.8 µM. In addition, the Activity result in the series on RAW264.7 [2] is “Dose-Dependent Effect”; in the series on RAW264.7 [3], 91.61%; in the series with RAW264.7 [5], 90%. Further, the outcome in the series with RAW264.7 [4] was Active.

As to `Cc1ccc(-c2cc(C(F)(F)F)nn2-c2ccc(S(N)(=O)=O)cc2)cc1` [CELECOXIB], the Activity with Mus musculus is given as 70.05%.

For `Cc1ccc(S(=O)(=O)N2C(=O)[C@H](c3cccc(F)c3)[C@H]3c4cccc(Br)c4C=CN32)cc1`, in the series with RAW264.7 [2], the IC50 was determined as 33.8 µM and the Activity result is “Dose-Dependent Effect”.

As to `COc1ccc([C@H]2C(=O)N(S(=O)(=O)c3ccc(C)cc3)N3C=Cc4c(Br)cccc4[C@H]23)cc1`, the viability at 24 h, 100 µM in series [1] came out at 91.7%. Moreover, in the series with RAW264.7 [2], the IC50 stood at 26.7 µM and the Activity result is “Dose-Dependent Effect”. The Activity in the series with RAW264.7 [3] is reported as 84.9%.

For the molecule `Cc1ccc(S(=O)(=O)N2C(=O)[C@H](c3ccc(F)cc3)[C@H]3c4ccccc4C=CN32)cc1`, the viability at 24 h, 100 µM in series [1] worked out at 91.7%. Further, the Activity was 64.4% in the series with Mus musculus, “Dose-Dependent Effect” with RAW264.7 [2] and 73.46% in the series on RAW264.7 [3].

Take `Cc1ccc(S(=O)(=O)N2C(=O)[C@H](c3ccccc3F)[C@H]3c4cccc(Br)c4C=CN32)cc1`: the viability at 24 h, 100 µM in series [1] stood at 87.7%. For the same molecule, the figures for the Activity entry in the series on RAW264.7 [2], with RAW264.7 [3] and in the series on RAW264.7 [5] were “Dose-Dependent Effect”, 92.84% and 90%, respectively.

`Cc1ccc(S(=O)(=O)N2C(=O)[C@H](c3cccc(Br)c3)[C@H]3c4cccc(Br)c4C=CN32)cc1`: in series [1], the viability at 24 h, 100 µM is 81.7%. The Activity result in the series with RAW264.7 [2] was “Dose-Dependent Effect”; in the series with RAW264.7 [3], 72.86%.

As for `Cc1ccc(S(=O)(=O)N2C(=O)[C@H](c3ccccc3)[C@H]3c4cccc(Br)c4C=CN32)cc1`, the viability at 24 h, 100 µM in series [1] stood at 92.3%. The half-inhibitory concentration (IC50) with RAW264.7 [2] amounted to 47.8 µM. Besides, the Activity result in the series on RAW264.7 [2] is “Dose-Dependent Effect”; in the series on RAW264.7 [3] it was 90.52%; in the series with RAW264.7 [5], 90%.

Consider `COc1ccc([C@H]2C(=O)N(S(=O)(=O)c3ccc(C)cc3)N3C=Cc4ccccc4[C@H]23)cc1`, for which the viability at 24 h, 100 µM in series [1] is 87%. In addition, in the series on RAW264.7 [2], the concentration for half-maximal inhibition (IC50) came out at 47.8 µM and the Activity result is “Dose-Dependent Effect”. For the same molecule, the Activity with RAW264.7 [3] was 77.09%.

For the origin of these results see ChEMBL document CHEMBL5370522, “Anti-inflammatory efficacy and relevant SAR investigations of novel chiral pyrazolo isoquinoline derivatives: Design, synthesis, in-vitro, in-vivo, and computational studies targeting iNOS” (Eur J Med Chem, 2023).
